Source: patent US6982348B2, “Aminoethanol derivatives” (Takeda Pharmaceutical Company Limited, priority 2001, dated 2006)

| SMILES | melting point [°C] |
| --- | --- |
| O=C(N[C@H](Cc1ccc(C(F)(F)F)cc1)[C@@H](O)c1ccc(F)cc1)c1ccc(F)c2c1CCCC2 (racemic) [Example 31, 4-fluoro-N-[(1RS,2SR)-2-(4-fluorophenyl)-2-hydroxy-1-[4-(trifluoromethyl)benzyl]ethyl]-5,6,7,8-tetrahydronaphthalene-1-carboxamide] | 241 to 242 |
| O=C(N[C@H](Cc1ccc(C(F)(F)F)cc1)[C@@H](O)c1ccc(F)cc1)c1cccc2c(F)cccc12 (racemic) [Example 32, 5-fluoro-N-[(1RS,2SR)-2-(4-fluorophenyl)-2-hydroxy-1-[4-(trifluoromethyl)benzyl]ethyl]naphthalene-1-carboxamide] | 222 to 224 |
| O=C(N[C@H](Cc1ccc(C(F)(F)F)cc1)[C@@H](O)c1ccc(F)cc1)c1cccc2c1CCCC2 (racemic) [Example 33, N-[(1RS,2SR)-2-(4-fluorophenyl)-2-hydroxy-1-[4-(trifluoromethyl)benzyl]ethyl]-5,6,7,8-tetrahydronaphthalene-1-carboxamide] | 219 to 221 |
| O=C(N[C@H](Cc1ccc(C(F)(F)F)cc1)[C@@H](O)c1ccc(F)cc1)c1ccc(Cl)c2ccccc12 (racemic) [Example 34, 4-chloro-N-[(1RS,2SR)-2-(4-fluorophenyl)-2-hydroxy-1-[4-(trifluoromethyl)benzyl]ethyl]naphthalene-1-carboxamide] | 222 to 223 |
| O=C(N[C@H](Cc1ccc(C(F)(F)F)cc1)[C@@H](O)c1ccc(F)cc1)c1cccc2ccccc12 (racemic) [Example 35, N-[(1RS,2SR)-2-(4-fluorophenyl)-2-hydroxy-1-[4-(trifluoromethyl)benzyl]ethyl]naphthalene-1-carboxamide] | 214 to 216 |
| Cc1ccc(C(=O)N[C@H](Cc2ccc(C(F)(F)F)cc2)[C@@H](O)c2ccc(F)cc2)c2ccccc12 (racemic) [Example 36, N-((1RS,2SR)-2-(4-fluorophenyl)-2-hydroxy-1-((4-(trifluoromethyl)phenyl)methyl)ethyl)-4-methyl-1-naphthalenecarboxamide] | 198 to 199 |
| O=C(N[C@H](Cc1ccc(C(F)(F)F)cc1)[C@@H](O)c1ccc(F)cc1)c1cccc2c(Cl)cccc12 (racemic) [Example 37, 5-chloro-N-[(1RS,2SR)-2-(4-fluorophenyl)-2-hydroxy-1-[4-(trifluoromethyl)benzyl]ethyl]naphthalene-1-carboxamide] | 211 to 212 |
| O=C(N[C@H](Cc1ccc(C(F)(F)F)cc1)[C@@H](O)c1ccc(F)cc1)c1ccc([N+](=O)[O-])c2c1CCCC2 (racemic) [Example 38, N-[(1RS,2SR)-2-(4-fluorophenyl)-2-hydroxy-1-[4-(trifluoromethyl)benzyl]ethyl]-4-nitro-5,6,7,8-tetrahydronaphthalene-1-carboxamide] | 207 to 209 |
| O=C(N[C@H](Cc1ccc(C(F)(F)F)cc1)[C@@H](O)c1ccc(F)cc1)c1cccc2cc(F)ccc12 (racemic) [Example 39, 6-fluoro-N-[(1RS,2SR)-2 (4-fluorophenyl)-2-hydroxy-1-[4-(trifluoromethyl)benzyl]ethyl]naphthalene-1-carboxamide] | 223 to 224 |
| O=C(N[C@H](Cc1ccc(C(F)(F)F)cc1)[C@@H](O)c1ccc(F)cc1)c1cccc2c([N+](=O)[O-])cccc12 (racemic) [Example 40, N-[(1RS,2SR)-2-(4-fluorophenyl)-2-hydroxy-1-[4-(trifluoromethyl)benzyl]ethyl]-5-nitronaphthalene-1-carboxamide] | 211 to 214 |
| O=C(N[C@H](Cc1ccc(C(F)(F)F)cc1)[C@@H](O)c1ccc(F)cc1)C1CCCc2ccccc21 (mixture of isomers) [Example 41, N-[(1RS,2SR)-2-(4-fluorophenyl)-2-hydroxy-1-[4-(trifluoromethyl)benzyl]ethyl]-1,2,3,4-tetrahydronaphthalene-1-carboxamide] | 205 to 214 |
| O=C(N[C@H](Cc1ccc(C(F)(F)F)cc1)[C@@H](O)c1ccc(F)cc1)c1cccc2c1CCCCC2 (racemic) [Example 42, N-[(1RS,2SR)-2-(4-fluorophenyl)-2-hydroxy-1-[4-(trifluoromethyl)benzyl]ethyl]-6,7,8,9-tetrahydro-5H-benzo[a]cycloheptene-1-carboxamide] | 210 to 211 |
| O=C(N[C@H](Cc1ccc(C(F)(F)F)cc1)[C@@H](O)c1ccc(F)cc1)c1ccc(Br)c2ccccc12 (racemic) [Example 43, 4-bromo-N-[(1RS,2SR)-2-(4-fluorophenyl)-2-hydroxy-1-[4-(trifluoromethyl)benzyl]ethyl]naphthalene-1-carboxamide] | 229 to 231 |
| O=C(CC1CCCC1)N[C@H](Cc1ccc(C(F)(F)F)cc1)[C@@H](O)c1ccc(F)cc1 (racemic) [Example 44, 2-cyclopentyl-N-[(1RS,2SR)-2-(4-fluorophenyl)-2-hydroxy-1-[4-(trifluoromethyl)benzyl]ethyl]acetamide] | 195 to 196 |
| O=C(CCC1CCCC1)N[C@H](Cc1ccc(C(F)(F)F)cc1)[C@@H](O)c1ccc(F)cc1 (racemic) [Example 45, 3-cyclopentyl-N-[(1RS,2SR)-2-(4-fluorophenyl)-2-hydroxy-1-[4-(trifluoromethyl)benzyl]ethyl]propionamide] | 169 to 170 |
| O=C(N[C@H](Cc1ccc(C(F)(F)F)cc1)[C@@H](O)c1ccc(F)cc1)c1csc2ccccc12 (racemic) [Example 46, N-[(1RS,2SR)-2-(4-fluorophenyl)-2-hydroxy-1-[4-(trifluoromethyl)benzyl]ethyl]-1-benzothiophene-3-carboxamide] | 188 to 189 |
| O=C(CCCc1ccccc1)N[C@H](Cc1ccc(C(F)(F)F)cc1)[C@@H](O)c1ccc(F)cc1 (racemic) [Example 47, N-((1RS,2SR)-2-(4-fluorophenyl)-2-hydroxy-1-((4-(trifluoromethyl)phenyl)methyl)ethyl)-4-phenylbutyramide] | 150 to 151 |
| O=C(CCc1ccccc1)N[C@H](Cc1ccc(C(F)(F)F)cc1)[C@@H](O)c1ccc(F)cc1 (racemic) [Example 48, N-((1RS,2SR)-2-(4-fluorophenyl)-2-hydroxy-1-((4-(trifluoromethyl)phenyl)methyl)ethyl)-3-phenylpropanamide] | 144 to 145 |
| CC(=CC(=O)N[C@H](Cc1ccc(C(F)(F)F)cc1)[C@@H](O)c1ccc(F)cc1)C(F)(F)F (racemic) [Example 49, 4,4,4-trifluoro-N-[(1RS,2SR)-2-(4-fluorophenyl)-2-hydroxy-1-[4-(trifluoromethyl)benzyl]ethyl]-3-methyl-2-butenamide] | 182 to 183 |

Continued, values first:

| melting point [°C] | SMILES |
| --- | --- |
| 187 to 188 | O=C(N[C@H](Cc1ccc(C(F)(F)F)cc1)[C@@H](O)c1ccc(F)cc1)c1cccc(Cl)c1Cl (racemic) [Example 50, 2,3-dichloro-N-((1RS,2SR)-2-(4-fluorophenyl)-2-hydroxy-1-((4-(trifluoromethyl)phenyl)methyl)ethyl)benzamide] |
| 206 to 207 | O=C(N[C@H](Cc1ccc(C(F)(F)F)cc1)[C@@H](O)c1ccc(F)cc1)c1cccc2cc([N+](=O)[O-])ccc12 (racemic) [Example 51, N-[(1RS,2SR)-2-(4-fluorophenyl)-2-hydroxy-1-[4-(trifluoromethyl)benzyl]ethyl]-6-nitronaphthalene-1-carboxamide] |
| 203 to 204 | O=C(N[C@H](Cc1ccc(C(F)(F)F)cc1)[C@@H](O)c1ccc(F)cc1)C1CCCCC1 (racemic) [Example 52, N-((1RS,2SR)-2-(4-fluorophenyl)-2-hydroxy-1-((4-(trifluoromethyl)phenyl)methyl)ethyl)cyclohexanecarboxamide] |
| 237 to 238 | O=C1CC(C(=O)N[C@H](Cc2ccc(C(F)(F)F)cc2)[C@@H](O)c2ccc(F)cc2)c2ccccc21 (mixture of isomers) [Example 53, N-((1RS,2SR)-2-(4-fluorophenyl)-2-hydroxy-1-((4-(trifluoromethyl)phenyl)methyl)ethyl)-3-oxo-2,3-dihydro-1H-indene-1-carboxamide] |
| 199 to 201 | N#Cc1ccc(C(=O)N[C@H](Cc2ccc(C(F)(F)F)cc2)[C@@H](O)c2ccc(F)cc2)c2ccccc12 (racemic) [Example 54, 4-cyano-N-[(1RS,2SR)-2-(4-fluorophenyl)-2-hydroxy-1-[4-(trifluoromethyl)benzyl]ethyl]naphthalene-1-carboxamide] |
| 202 to 203 | O=C(N[C@H](Cc1ccc(C(F)(F)F)cc1)[C@@H](O)c1ccc(F)cc1)c1ccc(F)cc1 (racemic) [Example 55, 4-fluoro-N-((1RS,2SR)-2-(4-fluorophenyl)-2-hydroxy-1-((4-(trifluoromethyl)phenyl)methyl)ethyl)benzamide] |
| 193 to 194 | COc1ccc2c(C(=O)N[C@H](Cc3ccc(C(F)(F)F)cc3)[C@@H](O)c3ccc(F)cc3)cccc2c1 (racemic) [Example 56, N-((1RS,2SR)-2-(4-fluorophenyl)-2-hydroxy-1-((4-(trifluoromethyl)phenyl)methyl)ethyl)-6-(methyloxy)-1-naphthalenecarboxamide] |
| 227 to 228 | O=C(N[C@H](Cc1ccc(C(F)(F)F)cc1)[C@@H](O)c1ccc(F)cc1)c1ccnc2ccccc12 (racemic) [Example 57, N-((1RS,2SR)-2-(4-fluorophenyl)-2-hydroxy-1-((4-(trifluoromethyl)phenyl)methyl)ethyl)-4-quinolinecarboxamide] |
| 192 to 193 | COc1ccc(C(=O)N[C@H](Cc2ccc(C(F)(F)F)cc2)[C@@H](O)c2ccc(F)cc2)cc1 (racemic) [Example 60, N-((1RS,2SR)-2-(4-fluorophenyl)-2-hydroxy-1-((4-(trifluoromethyl)phenyl)methyl)ethyl)-4-(methyloxy)benzamide] |
| 231 to 232 | O=C(N[C@H](Cc1ccc(C(F)(F)F)cc1)[C@@H](O)c1ccc(F)cc1)c1cccc2c1-c1ccccc1C2=O (racemic) [Example 61, N-((1RS,2SR)-2-(4-fluorophenyl)-2-hydroxy-1-((4-(trifluoromethyl)phenyl)methyl)ethyl)-9-oxo-9H-fluorene-4-carboxamide] |
